Reference: paper PMC10113271, “Rational peptide design for inhibition of the KIX–MLL interaction” (Scientific Reports, 2023)
Where two headings read alike, the source gives them in different places. Where a SMILES comes first, the peptide text is derived from it. Where no end group is shown, it is not given here.

How the values were obtained:
KIX = molecular target: T1, KIX (Mus musculus, UniProt P45481); assay: KIX binding by isothermal titration calorimetry (ITC); conditions: 30 °C; for N (stoichiometry of binding): pH 7.0, mean ± standard error of triplicate or more; for − TΔS: entropy term upon KIX binding, pH 7.0, ΔS=(ΔH-ΔG)/T, mean ± standard error of triplicate or more
T1 construct: The DNA fragment of KIX (residues 586–672 of mouse CBP); 6xHis-tag with thrombin cleavage site (N); made in house; host or cells: E. coli BL21(DE3)pLysS
Protocol: For the expression of MLL TAD, E. coli BL21(DE3) competent cells were transformed with the plasmid and cultivated at 37 °C in 2 × YT liquid medium supplemented with ampicillin. When an optical density at 600 nm (OD600) of the cell culture reached 0.7–0.8, 1 mM isopropyl β-D-1-thiogalactopyranoside was added to induce protein expression. After 4 h of cultivation, the cells were harvested by centrifugation. The E. coli cell pellet was suspended with buffer HP (50 mM sodium phosphate [pH 7.4], 300 mM NaCl, 10 mM imidazole, and 6 M guanidine hydrochloride). The sonicated lysate was centrifuged at 4 °C, and the supernatant was filtered using a membrane filter and applied to a gravity column (50 mL) containing 5 mL of nickel-nitrilotriacetic acid (Ni–NTA) resin (Qiagen, Hilden, Germany). The column was washed with buffer HP and buffer AP (50 mM sodium phosphate [pH 7.4], 300 mM NaCl, and 10 mM imidazole) to remove impurities. To elute His-tag–GB1–MLL TAD for ITC and SPR measurements, 40 mL of buffer EP (50 mM sodium phosphate [pH 7.4], 300 mM NaCl, and 250 mM imidazole) was added to the column. […] Thus, His-tag–GB1–MLL TAD was used in the ITC measurements, with the exception of the four mutants (I2849L, D2851L, K2855R, and T2857I). To obtain the MLL TAD peptide without His-tag–GB1 for CD measurements, we washed the column, to which the His-tag–GB1–MLL TAD was attached, with buffer TP (50 mM sodium phosphate [pH 7.4] and 300 mM NaCl), added 150 units of thrombin to the column for digestion of the His-tag–GB1, and eluted the MLL TAD peptide with buffer TP. After Ni–NTA column purification, anion exchange chromatography was performed to further purify the aforementioned four mutants without His-tag–GB1 using the AKTAprime plus chromatography system (Cytiva, Marlborough, MA, USA; 10 mM sodium phosphate [pH 6.0] and 0–1 M NaCl). Due to the fact that the CD spectra of the four mutants were unchanged before and after the anion exchange chromatography, we omitted this procedure for other mutants.
Expression and purification of the KIX protein was performed in the same way as MLL, except that E. coli BL21(DE3)pLysS competent cells and 2 × YT liquid medium with ampicillin and chloramphenicol were used. After Ni–NTA column purification, gel filtration chromatography was performed using a Superdex 200 pg column (Cytiva) and the ITC buffer (20 mM Tris–acetate [pH 7.0] and 50 mM NaCl).
ITC measurements were performed using MicroCal iTC200 (Malvern Panalytical Ltd., Malvern, United Kingdom) at 30 °C. Samples were sufficiently dialyzed with the ITC buffer before measurements. The 600 μM MLL solution was titrated into the cell containing 45 µM KIX. The data were analyzed using the Origin 7 software (OriginLab Corp., Northampton, MA, USA; https://www.originlab.com) to obtain the Kd (M), ΔH (kcal/mol), and stoichiometry of binding, N. The ΔG (kcal/mol) and ΔS (kcal/mol/K) were obtained as follows:2 ΔG=-RTln1/Kd 3 ΔS=ΔH-ΔG/T where R is the gas constant, and T is the temperature.

KIX–MLL interaction = conditions: cited from earlier work
Protocol: Previous studies have reported several inhibitors that bind the MLL site of KIX, including isoxazolidine derivatives, which are small molecule compounds that mimic the function of the TADs of transcriptional activators, and natural products such as sekikaic acid and lobaric acid[21],[22]. […] However, the EC50 and IC50 values of these small molecule inhibitors are 10- to 100-fold larger than the Kd for the KIX–MLL interaction (2.02 ± 0.04 μM).

[1] = inhibition of the KIX–MLL interaction

T1 sequence (P45481 586-672): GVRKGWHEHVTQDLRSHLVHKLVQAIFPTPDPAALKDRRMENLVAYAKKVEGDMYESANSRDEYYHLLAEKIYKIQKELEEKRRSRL

Compound	− TΔS (KIX) [kcal/mol]	further results
CC[C@H](C)[C@H](NC(=O)[C@H](CC(=O)O)NC(=O)[C@H](CO)NC(=O)[C@@H]1CCCN1C(=O)[C@H](CC(C)C)NC(=O)[C@@H](NC(=O)[C@H](CC(N)=O)NC(=O)CN)[C@@H](C)CC)C(=O)N[C@@H](CCSC)C(=O)N[C@@H](CC(C)C)C(=O)N[C@@H](Cc1ccccc1)C(=O)N[C@H](C(=O)N[C@@H](CC(C)C)C(=O)N[C@@H](CCCCN)C(=O)N[C@@H](CC(N)=O)C(=O)N[C@H](C(=O)N1CCC[C@H]1C(=O)N[C@@H](CO)C(=O)N[C@@H](CCSC)C(=O)N[C@@H](CCC(N)=O)C(=O)N[C@@H](C)C(=O)N[C@@H](CC(C)C)C(=O)NCC(=O)N[C@@H](CCC(=O)O)C(=O)N[C@@H](CO)C(=O)N1CCC[C@H]1C(=O)N[C@@H](CCC(=O)O)C(=O)N[C@@H](CO)C(=O)N[C@@H](Cc1ccc(O)cc1)C(=O)O)[C@@H](C)O)C(C)C [D2851L] (H-GNILPSDIMLFVLKNTPSMQALGESPESY-OH; N-terminus and C-terminus assumed)	1.4 ± 0.4	N (stoichiometry of binding) (KIX): 1.020 ± 0.006
CC[C@H](C)[C@H](NC(=O)[C@H](CC(N)=O)NC(=O)CN)C(=O)N[C@@H](CC(C)C)C(=O)N1CCC[C@H]1C(=O)N[C@@H](CO)C(=O)N[C@@H](CC(=O)O)C(=O)N[C@@H](CC(C)C)C(=O)N[C@@H](CCSC)C(=O)N[C@@H](CC(=O)O)C(=O)N[C@@H](Cc1ccccc1)C(=O)N[C@H](C(=O)N[C@@H](CC(C)C)C(=O)N[C@@H](CCCCN)C(=O)N[C@@H](CC(N)=O)C(=O)N[C@H](C(=O)N1CCC[C@H]1C(=O)N[C@@H](CO)C(=O)N[C@@H](CCSC)C(=O)N[C@@H](CCC(N)=O)C(=O)N[C@@H](C)C(=O)N[C@@H](CC(C)C)C(=O)NCC(=O)N[C@@H](CCC(=O)O)C(=O)N[C@@H](CO)C(=O)N1CCC[C@H]1C(=O)N[C@@H](CCC(=O)O)C(=O)N[C@@H](CO)C(=O)N[C@@H](Cc1ccc(O)cc1)C(=O)O)[C@@H](C)O)C(C)C [I2849L] (H-GNILPSDLMDFVLKNTPSMQALGESPESY-OH; N-terminus and C-terminus assumed)	4.6 ± 0.2	N (stoichiometry of binding) (KIX): 0.947 ± 0.008
CC[C@H](C)[C@H](NC(=O)[C@H](CC(=O)O)NC(=O)[C@H](CO)NC(=O)[C@@H]1CCCN1C(=O)[C@H](CC(C)C)NC(=O)[C@@H](NC(=O)[C@H](CC(N)=O)NC(=O)CN)[C@@H](C)CC)C(=O)N[C@@H](CCSC)C(=O)N[C@@H](CC(=O)O)C(=O)N[C@@H](Cc1ccccc1)C(=O)N[C@H](C(=O)N[C@@H](CC(C)C)C(=O)N[C@@H](CCCNC(=N)N)C(=O)N[C@@H](CC(N)=O)C(=O)N[C@H](C(=O)N1CCC[C@H]1C(=O)N[C@@H](CO)C(=O)N[C@@H](CCSC)C(=O)N[C@@H](CCC(N)=O)C(=O)N[C@@H](C)C(=O)N[C@@H](CC(C)C)C(=O)NCC(=O)N[C@@H](CCC(=O)O)C(=O)N[C@@H](CO)C(=O)N1CCC[C@H]1C(=O)N[C@@H](CCC(=O)O)C(=O)N[C@@H](CO)C(=O)N[C@@H](Cc1ccc(O)cc1)C(=O)O)[C@@H](C)O)C(C)C [K2855R] (H-GNILPSDIMDFVLRNTPSMQALGESPESY-OH; N-terminus and C-terminus assumed)	5.7 ± 0.4	N (stoichiometry of binding) (KIX): 0.94 ± 0.02
O=C(Nc1ccc(Cl)cc1)c1cc2ccccc2cc1OP(=O)(O)O [KG-501]	–	IC50 (KIX–MLL interaction; small molecule inhibitor of the KIX–MLL interaction): 200 ± 10 µM
CC[C@H](C)[C@H](NC(=O)[C@H](CC(=O)O)NC(=O)[C@H](CO)NC(=O)[C@@H]1CCCN1C(=O)[C@H](CC(C)C)NC(=O)[C@@H](NC(=O)[C@H](CC(N)=O)NC(=O)CN)[C@@H](C)CC)C(=O)N[C@@H](CCSC)C(=O)N[C@@H](CC(=O)O)C(=O)N[C@@H](Cc1ccccc1)C(=O)N[C@H](C(=O)N[C@@H](CC(C)C)C(=O)N[C@@H](CCCCN)C(=O)N[C@@H](CC(N)=O)C(=O)N[C@H](C(=O)N1CCC[C@H]1C(=O)N[C@@H](CO)C(=O)N[C@@H](CCSC)C(=O)N[C@@H](CCC(N)=O)C(=O)N[C@@H](C)C(=O)N[C@@H](CC(C)C)C(=O)NCC(=O)N[C@@H](CCC(=O)O)C(=O)N[C@@H](CO)C(=O)N1CCC[C@H]1C(=O)N[C@@H](CCC(=O)O)C(=O)N[C@@H](CO)C(=O)N[C@@H](Cc1ccc(O)cc1)C(=O)O)[C@@H](C)CC)C(C)C [T2857I] (H-GNILPSDIMDFVLKNIPSMQALGESPESY-OH; N-terminus and C-terminus assumed)	2.21 ± 0.08	N (stoichiometry of binding) (KIX): 1.043 ± 0.003
CCCCCc1c2c(cc(O)c1C(=O)O)OC(=O)c1c(cc(OC)cc1C(=O)CCCC)O2 [lobaric acid]	–	IC50 (KIX–MLL interaction; [1]): 17 µM
CCCc1cc(OC)cc(O)c1C(=O)Oc1c(OC)cc(CCC)c(C(=O)O)c1O [sekikaic acid]	–	IC50 (KIX–MLL interaction; [1]): 34 µM
K2855R / T2857L: K2855R/T2857L double mutant of the MLL TAD peptide ({His6-GB1}-GNILPSDIMDFVLRNLPSMQALGESPESY)	1.5 ± 0.2	–
K2855R / T2857W: K2855R/T2857W double mutant of the MLL TAD peptide ({His6-GB1}-GNILPSDIMDFVLRNWPSMQALGESPESY)	3.86 ± 0.05	–
T2857A: T2857A mutant of the MLL TAD peptide (GNILPSDIMDFVLKNAPSMQALGESPESY; left off: His6, N-terminal, cleaved | GB1 (B1 domain of Streptococcal protein G), N-terminal, cleaved)	4.0 ± 0.2	–
T2857F: T2857F mutant of the MLL TAD peptide (GNILPSDIMDFVLKNFPSMQALGESPESY; left off: His6, N-terminal, cleaved | GB1 (B1 domain of Streptococcal protein G), N-terminal, cleaved)	3.2 ± 0.3	–
T2857K: T2857K mutant of the MLL TAD peptide ({His6-GB1}-GNILPSDIMDFVLKNKPSMQALGESPESY)	4.4 ± 0.2	–
T2857L: T2857L mutant of the MLL TAD peptide ({His6-GB1}-GNILPSDIMDFVLKNLPSMQALGESPESY)	2.6 ± 0.1	–
T2857R: T2857R mutant of the MLL TAD peptide ({His6-GB1}-GNILPSDIMDFVLKNRPSMQALGESPESY)	4.9 ± 0.3	–
T2857W: T2857W mutant of the MLL TAD peptide, highest KIX affinity ({His6-GB1}-GNILPSDIMDFVLKNWPSMQALGESPESY)	4.4 ± 0.1	–
T2857Y: T2857Y mutant of the MLL TAD peptide ({His6-GB1}-GNILPSDIMDFVLKNYPSMQALGESPESY)	4.5 ± 0.2	–
